Test results reported in US5326774A, “Pharmaceutical preparation of antihypertensive, antianginal, antiarrhythmic and antiglaucomic action” (priority 1992, dated 1994).
“Also recorded” adds a separate entry of the source. Read-outs that look alike come from different tables or passages of the source.

Legend:
arterial pressure [1] = experiment: Arterial pressure and heart rate in conscious normotensive rats, oral; assay type: in vivo, rat; conditions: 10 and 50 mg/kg oral, 1 hour
experimental animals = experiment: Chronic toxicity, intragastric; assay type: in vivo
coronary vessels = experiment: Coronary vessel dilatation and myocardial perfusion in anesthetized rats; assay type: in vivo, rat; conditions: 0.1 mg/kg i.v. (compound of the invention); hydrochloride
From the text: The coronarodilative effect of the compound according to the invention is not associated with its β- and α-adrenoceptor blocking activity and its influence on the systemic perfusion pressure and pump function of the heart. […]

ventricular fibrillation = experiment: Ventricular fibrillation during acute coronary occlusion and reperfusion in anesthetized dogs; assay type: in vivo, dog; conditions: single animals, hydrochloride
myocardium necrosis = experiment: Myocardium necrosis in rats with labile coronary occlusion; assay type: in vivo, rat; conditions: for Mass and size myocardium (% to the total area of aortic ventricle): control 31.2 ± 1.96; for Area of myocardium necrosis (% to the total area of aortic ventricle): control 33.5 ± 2.5
[2] = test system: strophantin-induced arrhythmia; assay type: in vivo, guinea pig
[3] = test system: mesaton-initiated pressor effect; experiment: Mesaton-initiated pressor effect in cats; design: species or system cat; conditions: in vivo (rats and cats), i.v.
Method: The same tests were carried out on cats.

β1-adrenoceptor [4] = experiment: Isadrin's positive chronotropic effect, i.v., anesthetized cats; assay type: in vivo, cat
From the text: (§1) The influence of intravenous injection of the compound according to the invention as compared with the known drugs on […] positive chronotropic and depressor effects in the anesthetized cats was studied.

in vivo = conditions: mouse
From the text: (§2) LD50 values were estimated by using the Litchfield-Wilckoxon method.

β2-adrenoceptor [5] = experiment: Isadrin's depressor effect, i.v., anesthetized cats; assay type: in vivo, cat
From the text: as §1

β1-adrenoceptor [6] = target: T1, β1-adrenoceptor (Rattus norvegicus, UniProt P18090); experiment: Inhibition of isadrin's positive chronotropic effect, i.v., anesthetized rats; assay type: in vivo
T1 construct: positive chronotropic and depressor effects in the anesthetized rats; from tissue; host or cells: whole living rat (heart rate response to isadrin); endogenous receptor
T1 sequence (P18090 whole entry): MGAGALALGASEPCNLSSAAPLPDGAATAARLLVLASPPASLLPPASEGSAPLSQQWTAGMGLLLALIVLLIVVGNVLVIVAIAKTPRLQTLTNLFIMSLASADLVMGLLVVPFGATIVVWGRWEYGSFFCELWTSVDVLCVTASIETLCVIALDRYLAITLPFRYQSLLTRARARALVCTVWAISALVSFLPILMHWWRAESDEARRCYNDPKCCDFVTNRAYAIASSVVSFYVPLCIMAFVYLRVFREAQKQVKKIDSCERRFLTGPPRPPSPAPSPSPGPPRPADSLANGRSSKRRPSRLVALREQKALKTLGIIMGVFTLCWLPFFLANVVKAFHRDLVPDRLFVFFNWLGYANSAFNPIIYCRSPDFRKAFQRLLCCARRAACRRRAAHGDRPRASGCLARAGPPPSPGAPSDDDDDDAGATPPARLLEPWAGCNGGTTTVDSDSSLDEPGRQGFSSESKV

β-adrenoceptor [7] = experiment: Partial agonistic activity and non-specific membrane-stabilizing effect
[8] = Solubility of the active principle; assay type: physicochemical
β1-adrenoceptor [9] = target: T1, β1-adrenoceptor; experiment: Oral administration, isadrin-initiated positive chronotropism in rats; assay type: in vivo
Method: The effects of oral administration of the compound according to the invention as compared with the known drugs on the isadrin-initiated positive chronotropism in rats were tested.

β2-adrenoceptor [10] = target: T2, β2-adrenoceptor (Rattus norvegicus, UniProt P10608); experiment: Inhibition of isadrin's depressor effect, i.v., anesthetized rats; assay type: in vivo
T2 construct: positive chronotropic and depressor effects in the anesthetized rats; from tissue; host or cells: whole living rat (blood pressure response to isadrin); endogenous receptor
T2 sequence (P10608 whole entry): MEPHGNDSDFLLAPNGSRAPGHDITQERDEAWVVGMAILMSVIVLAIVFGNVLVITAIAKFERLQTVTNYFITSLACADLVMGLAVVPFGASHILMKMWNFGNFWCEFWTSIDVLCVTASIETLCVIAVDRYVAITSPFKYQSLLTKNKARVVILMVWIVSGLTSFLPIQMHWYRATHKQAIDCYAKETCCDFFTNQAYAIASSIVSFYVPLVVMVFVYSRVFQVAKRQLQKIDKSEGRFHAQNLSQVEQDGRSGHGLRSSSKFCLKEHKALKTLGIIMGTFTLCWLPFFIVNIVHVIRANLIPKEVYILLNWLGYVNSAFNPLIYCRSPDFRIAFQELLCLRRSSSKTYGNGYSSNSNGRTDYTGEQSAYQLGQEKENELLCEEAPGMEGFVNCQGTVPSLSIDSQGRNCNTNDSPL

β-adrenoceptor [11] = experiment: Specificity of β-adrenoceptor blocking effect: positive inotropism
From the text: Thus, the compound of the invention relates to specific β-adrenoceptor blocking agents.

[12] = test system: intraocular tension of intact rabbit eyes; conditions: for Average decrease of intraocular tension OD, M ± m / Intraocular tension level OD, M ± m: 1% solution
Method: The effects of the compound according to the invention on intraocular tension and hydrodynamics of the eye was tested in 28 chinchilla rabbits with body weight of 2.5-3.5 kg.
The left animal eyes were control wherein using the same procedure a diluent was instilled.

[13] = test system: electrically induced ventricular fibrillation; experiment: Threshold of electrically induced ventricular fibrillation in anesthetized cats; assay type: in vivo, cat
arterial pressure [14] = experiment: Antihypertensive effect in rats with spontaneous hypertension; assay type: in vivo, rat

From the text for albino mice: as §2

Cc1noc(COc2ccccc2OCC(O)CNC(C)(C)C)n1.Cl (stereo not shown) [Compound of the invention, 3-methyl-5-[2-(3-tert.butylamino-2-hydroxypropoxy)phenoxymethyl]-1,2,4-oxadiazole hydrochloride]
arterial pressure (arterial pressure [1]): arterial pressure lowering | heart rate (arterial pressure [1]): a decrease in heart rate | biochemical blood values (experimental animals; 5 and 30 mg/kg, 6 months): no effect on biochemical blood values | clinical blood values (experimental animals; 5 and 30 mg/kg, 6 months): did not change the clinical blood values | influence on behavior, appearance, body functions (experimental animals; 5 and 30 mg/kg, 6 months): not exert an essential influence | locally irritant effect (experimental animals; 5 and 30 mg/kg, 6 months): did not exert any locally irritant effect | pathologic alterations in structure of internals (experimental animals; 5 and 30 mg/kg, 6 months): did not lead to pathologic alterations | chronic toxicity tolerance (experimental animals; intragastric): excellent tolerance | coronary vessel dilatation / myocardial perfusion (coronary vessels): dilatation (with confidence) of coronary vessels; also recorded: direct coronarodilating effect | Ventricular fibrillation during acute occlusion and reperfusion (ventricular fibrillation; 10 min after injection): R | Ventricular fibrillation during acute occlusion and reperfusion (ventricular fibrillation; 60 min after injection): R | Mass and size myocardium (% to the total area of aortic ventricle) (myocardium necrosis; 1 mg/kg): 31.5% | Area of myocardium necrosis (% to the total area of aortic ventricle) (myocardium necrosis; 1 mg/kg): 30% | aortic ventricle necrosis in mass and size (myocardium necrosis; 5 mg/kg i.v.): decreasing in the aortic ventricle necrosis in mass and size | Mass and size myocardium (% to the total area of aortic ventricle) (myocardium necrosis; 5 mg/kg, P < 0.05): 23.6 ± 3.2% | Area of myocardium necrosis (% to the total area of aortic ventricle) (myocardium necrosis; 5 mg/kg, P < 0.05): 24.3 ± 3.4% | Arrhythmogenic dose of strophantin as compared with control: extrasystoles ([2]; 0.1 mg/kg i.v.): 118% | Dose of strophantin as compared with control: ventricular fibrillation ([2]; 0.1 mg/kg i.v.): 115.6% | Lethal dose of strophantin as compared with control: animal death ([2]; 0.1 mg/kg i.v.): 118.7% | Arrhythmogenic dose of strophantin as compared with control: extrasystoles ([2]; 0.3 mg/kg i.v.): 125.9% | Dose of strophantin as compared with control: ventricular fibrillation ([2]; 0.3 mg/kg i.v.): 113.1% | Lethal dose of strophantin as compared with control: animal death ([2]; 0.3 mg/kg i.v.): 123.5% | Arrhythmogenic dose of strophantin as compared with control: extrasystoles ([2]; 1.0 mg/kg i.v.): 148.2% | Dose of strophantin as compared with control: ventricular fibrillation ([2]; 1.0 mg/kg i.v.): 147.2% | Lethal dose of strophantin as compared with control: animal death ([2]; 1.0 mg/kg i.v.): 142.6% | Arrhythmogenic dose of strophantin as compared with control: extrasystoles ([2]; 3.0 mg/kg i.v.): 157.0% | Dose of strophantin as compared with control: ventricular fibrillation ([2]; 3.0 mg/kg i.v.): 170.2% | Lethal dose of strophantin as compared with control: animal death ([2]; 3.0 mg/kg i.v.): 150.7% | antiarrhythmic activity and efficacy ([2]; 0.1-3.0 mg/kg i.v.): superior to propranolol, oxprenolol and labetalol | adrenoceptor blocking activity compared with labetalol [3]: did not differ from labetalol | β1-adrenoceptor blocking activity compared with pindolol (β1-adrenoceptor [4]): close to pindolol | β1-adrenoceptor blocking activity, factor over labetalol (β1-adrenoceptor [4]): 550 | β1-adrenoceptor blocking activity, factor over oxprenolol (β1-adrenoceptor [4]): 35 | β1-adrenoceptor blocking activity, factor over propranolol (β1-adrenoceptor [4]): 3.5 | LD50 at 72 h (in vivo; iv): 72.5 mg/kg | LD50 at 72 h (in vivo; po): 600 mg/kg | β2-adrenoceptor blocking activity, times as high as labetalol (β2-adrenoceptor [5]): 114 times | β2-adrenoceptor blocking activity, times as high as oxprenolol (β2-adrenoceptor [5]): 43 times | β2-adrenoceptor blocking activity, times as high as propranolol (β2-adrenoceptor [5]): 2 times | suppression of isadrin positive chronotropic effect (β1-adrenoceptor [6]; 0.01 mg/kg i.v.): 25% | suppression of isadrin positive chronotropic effect (β1-adrenoceptor [6]; 0.025 mg/kg i.v.): 46% | suppression of isadrin positive chronotropic effect (β1-adrenoceptor [6]; 0.1 mg/kg i.v.): 78% | β1-adrenoceptor blocking activity compared with pindolol (β1-adrenoceptor [6]; comparison of ED50, rats i.v.): close to pindolol | β1-adrenoceptor blocking activity, factor over labetalol (β1-adrenoceptor [6]; comparison of ED50, rats i.v.): 23 | β1-adrenoceptor blocking activity, factor over oxprenolol (β1-adrenoceptor [6]; comparison of ED50, rats i.v.): 9 | β1-adrenoceptor blocking activity, factor over propranolol (β1-adrenoceptor [6]; comparison of ED50, rats i.v.): 12 | dosage from which isadrin positive chronotropic effect suppressed (β1-adrenoceptor [6]; i.v.): 0.1 mg/kg | ED50 (β1-adrenoceptor [6]; rat, iv, read-out: Dosage inhibiting isadrin's positive chronotropism by 50% (ED50)): 0.03 ± 0.001 mg/kg | non-specific membrane-stabilizing effect (β-adrenoceptor [7]): has a non-specific membrane-stabilizing effect | partial agonistic activity (β-adrenoceptor [7]): fails to exhibit a partial agonistic activity | lower toxicity compared with propranolol, oxprenolol and pindolol (albino mice; i.v.): 2-4 times | lower toxicity than propranolol and oxprenolol (albino mice; oral): 2-3 times | solubility in ethyl ether [8]: substantially insoluble | solubility in water, chloroform, ethanol [8]: readily soluble | β1-adrenoceptor blocking activity compared with pindolol (β1-adrenoceptor [9]): inferior to pindolol | β1-adrenoceptor blocking activity, superior to labetalol by (β1-adrenoceptor [9]): 35 times | β1-adrenoceptor blocking activity, superior to propranolol by (β1-adrenoceptor [9]): 14.8 times | suppression of the isadrin-initiated depressor effect (β2-adrenoceptor [10]; 0.025 mg/kg i.v.): 82% | suppression of the isadrin-initiated depressor effect (β2-adrenoceptor [10]; 0.1 mg/kg i.v.): 90% | β2-adrenoceptor blocking activity, times as high as labetalol (β2-adrenoceptor [10]; comparison of ED50, rats i.v.): 412 times | β2-adrenoceptor blocking activity, times as high as oxprenolol (β2-adrenoceptor [10]; comparison of ED50, rats i.v.): 4 times | β2-adrenoceptor blocking activity, times as high as pindolol (β2-adrenoceptor [10]; comparison of ED50, rats i.v.): 2 times | β2-adrenoceptor blocking activity, times as high as propranolol (β2-adrenoceptor [10]; comparison of ED50, rats i.v.): 11 times | dosage from which isadrin depressor effect suppressed (β2-adrenoceptor [10]; i.v.): 0.0025 mg/kg | ED50 (β2-adrenoceptor [10]; rat, iv, read-out: Dosage inhibiting isadrin's depressor effect by 50%, ED50): 0.008 ± 0.0007 mg/kg | effect on positive inotropism of isadrin (β-adrenoceptor [11]): completely arrested | effect on positive inotropism of strophanthin, calcium chloride and theophylline (β-adrenoceptor [11]): did not inhibit but even somewhat enhanced | tolerability for rabbit eyes ([12]; 0.5, 1 and 2% solutions): well-tolerable | Average decrease of intraocular tension OD, M ± m ([12]; 1 hour): 1.9 ± 0.3 ram of Hg column | Intraocular tension level OD, M ± m ([12]; 1 hour): 17.1 ± 0.3 ram of Hg column | Average decrease of intraocular tension OD, M ± m ([12]; 2 hours): 2.6 ± 0.2 ram of Hg column | Intraocular tension level OD, M ± m ([12]; 2 hours): 16.5 ± 0.4 ram of Hg column | Average decrease of intraocular tension OD, M ± m ([12]; 3 hours): 2.3 ± 0.3 ram of Hg column | Intraocular tension level OD, M ± m ([12]; 3 hours): 17.1 ± 0.4 ram of Hg column | Average decrease of intraocular tension OD, M ± m ([12]; 4 hours): 2.3 ± 0.3 ram of Hg column | Intraocular tension level OD, M ± m ([12]; 4 hours): 17.1 ± 0.2 ram of Hg column | Average decrease of intraocular tension OD, M ± m ([12]; 5 hours): 1.5 ± 0.5 ram of Hg column | Intraocular tension level OD, M ± m ([12]; 5 hours): 17.6 ± 0.4 ram of Hg column | Average decrease of intraocular tension OD, M ± m ([12]; 6 hours): 1.2 ± 0.4 ram of Hg column | Intraocular tension level OD, M ± m ([12]; 6 hours): 17.8 ± 0.4 ram of Hg column | Average decrease of intraocular tension OD, M ± m ([12]; 24 hours): 0.8 ± 0.5 ram of Hg column | Intraocular tension level OD, M ± m ([12]; 24 hours): 18.2 ± 0.7 ram of Hg column | mechanism of lowering of intraocular tension ([12]; intact rabbit eyes): decrease in secretion of surface water (watery moisture) | duration of lowering of intraocular tension ([12]; intact rabbit eyes, 0.5, 1 and 2% solutions): 6 to 8 h | irritating effect ([12]; rabbit, in vivo): no irritating effect | pupil value ([12]; rabbit, in vivo): do not change considerably the pupil value | threshold of electrically induced ventricular fibrillation ([13]; 1 mg/kg): did not change | threshold of electrically induced ventricular fibrillation ([13]; 5 mg/kg): increased considerably this threshold | value of increasing threshold compared with propranolol and oxprenolol ([13]; 5 mg/kg): higher | antiarrhythmic activity and efficacy (ventricular fibrillation threshold, strophanthin arrhythmia) ([13]; compared with propranolol, oxprenolol, pindolol and labetalol): superior to propranolol, oxprenolol, pindolol and labetalol | hypotensive and antihypertensive properties (arterial pressure [14]): shows hypotensive and antihypertensive properties
